SMILES strings stand for the structures.

This is an account of results in patent US10093623B2, “Cyclic amides as MetAP-2 inhibitors” (MERCK PATENT GmbH, priority 2012, dated 2018).

This test deals with MetAP-2 (Homo sapiens, UniProt P50579). Description: MetAP-2 activity measurement (coupled enzymatic reactions, Met-Arg-Ser substrate, dianisidine detection at 450 nm). It is filed as biochemical. The settings on record: Inhibition of MetAP-2; read-out: IC50 enzyme. The procedure, abridged: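 Rate read from the linear part of the 450 nm absorbance trace. Dianisidine oxidation by peroxidase reports H2O2 made when amino acid oxidase acts on methionine cleaved from MAS tripeptide, one mol dye per mol Met; extinction coefficient gives molar activity.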
Chain of MetAP-2 (P50579 whole entry, species assumed): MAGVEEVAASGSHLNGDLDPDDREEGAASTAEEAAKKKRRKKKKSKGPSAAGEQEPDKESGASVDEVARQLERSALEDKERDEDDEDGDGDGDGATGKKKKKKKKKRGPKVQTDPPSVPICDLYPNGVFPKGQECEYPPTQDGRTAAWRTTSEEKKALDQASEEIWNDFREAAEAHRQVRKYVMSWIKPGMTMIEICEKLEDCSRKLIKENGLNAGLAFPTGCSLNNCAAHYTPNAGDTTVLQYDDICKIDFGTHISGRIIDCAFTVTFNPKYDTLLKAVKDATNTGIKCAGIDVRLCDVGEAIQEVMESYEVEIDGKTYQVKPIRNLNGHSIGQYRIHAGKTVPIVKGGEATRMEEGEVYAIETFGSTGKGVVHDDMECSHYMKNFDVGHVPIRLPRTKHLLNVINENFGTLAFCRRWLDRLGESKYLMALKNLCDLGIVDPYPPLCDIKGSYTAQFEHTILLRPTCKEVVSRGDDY

Turning to `O=C(NCc1cc(F)cc(Cl)c1)[C@]1(O)CCN(c2cnc3[nH]cc(C(F)(F)F)c3c2)C1=O` [B140, N-(3-Chloro-5-fluorobenzyl)-(R)-3-hydroxy-2-oxo-1-(3-trifluoromethyl-1H-pyrrolo-[2,3-b]pyridin-5-yl)pyrrolidine-3-carboxamide], the concentration for half-maximal inhibition (IC50) is more than 10000 nM.

As for `CCS(=O)(=O)N[C@H]1CC[C@H](N2CCC(O)(C(=O)NCc3cc(F)cc(Cl)c3)C2=O)CC1` (stereo partly shown) [A124, N-(3-Chloro-5-fluorobenzyl)-1-(4-ethanesulfonylamino-cyclohexyl)-3-hydroxy-2-oxo-pyrrolidine-3-carboxamide], the IC50 lay in the range of 1000 to 10000 nM.

Consider `O=C(NCCO)c1cc2cc(N3CC[C@](O)(C(=O)NCc4cc(F)cc(Cl)c4)C3=O)ccc2[nH]1` [B121, N-(2-hydroxyethyl)-5-[(S)-3-(3-chloro-5-fluorobenzyl-carbamoyl)-3-hydroxy-2-oxo-pyrrolidin-1-yl]-1H-indole-2-carboxamide], for which the IC50 fell in the range of 10 to 1000 nM.

As to `CC(=O)Nc1ccc(N2CCC(O)(C(=O)NCc3cc(F)cc(F)c3)C2=O)cn1` (stereo not shown) [A176, N-(3,5-Difluorobenzyl)-1-(6-acetylaminopyridin-3-yl)-3-hydroxy-2-oxopyrrolidine-3-carboxamide], the IC50 was 10 to 1000 nM.

As to `O=C(CNC(=O)[C@@]1(O)CCN(c2ccccc2)C1=O)N1CCOCC1` [A62, N-(2-Morpholin-4-yl-2-oxoethyl)-(S)-3-hydroxy-2-oxo-1-phenyl-pyrrolidine-3-carboxamide], the 50% inhibitory concentration (IC50) was more than 10000 nM.

Turning to `O=C(NCc1cc(F)cc(Cl)c1)C1(O)CCCN(Cc2ccccc2)C1` (stereo not shown) [B16, N-(3-Chloro-5-fluorobenzyl)-1-benzyl-3-hydroxypiperidine-3-carboxamide], the IC50 was 1000 to 10000 nM.

In the case of `Cc1cc(CNC(=O)C2(O)CCCN(Cc3ccc(F)c(F)c3)C2=O)no1` (stereo not shown) [A258, N-(5-Methylisoxazol-3-ylmethyl)-1-(3,4-difluorobenzyl)-3-hydroxy-2-oxopiperidine-3-carboxamide], the IC50 is more than 10000 nM.

Regarding `COCCn1cc(N2CC[C@](O)(C(=O)NCc3cc(F)cc(Cl)c3)C2=O)cn1` [B99, N-(3-Chloro-5-fluorobenzyl)-(S)-3-hydroxy-1-[1-(2-methoxy-ethyl)-1H-pyrazol-4-yl]-2-oxo-pyrrolidine-3-carboxamide], the half-maximal inhibitory concentration (IC50) is 10 to 1000 nM.

Consider `CC(C)(C)OC(=O)N1CCN(C(=O)c2cc3cc(N4CC[C@](O)(C(=O)NCc5cc(F)cc(Cl)c5)C4=O)ccc3[nH]2)CC1` [B123, tert-Butyl 4-{5-[(S)-3-(3-chloro-5-fluorobenzylcarbamoyl)-3-hydroxy-2-oxopyrrolidin-1-yl]-1H-indol-2-carbonyl}-piperazine-1-carboxylate], for which the half-maximal inhibitory concentration (IC50) is 10 to 1000 nM.

For `O=C(NCc1cc(F)cc(Cl)c1)C1(O)CCN([C@@H]2CCNC2)C1=O` (stereo partly drawn) [A131, N-(3-Chloro-5-fluorobenzyl)-(R)-3-hydroxy-2-oxo-[1,3′]bipyrrolidinyl-3-carboxamide], the IC50 is more than 10000 nM.

Take `CN(C)CCCNC(=O)[C@@]1(O)CCN(c2ccccc2)C1=O` [A64, N-(3-Dimethylaminopropyl)-(S)-3-hydroxy-2-oxo-1-phenylpyrrolidine-3-carboxamide]: the half-maximal inhibitory concentration (IC50) was more than 10000 nM.

In the case of `O=C(NCc1cc(F)cc(Cl)c1)C1(O)CCN(Cc2cc[nH]n2)C1=O` (stereo not shown) [A277, N-(3-Chloro-5-fluorobenzyl)-3-hydroxy-2-oxo-1-(1H-pyrazol-3-ylmethyl)pyrrolidine-3-carboxamide], the half-maximal inhibitory concentration (IC50) was in the range of 10 to 1000 nM.

For `O=C(NCc1cc(F)cc(Cl)c1)[C@]1(O)CCN(c2ccc(C(F)(F)F)nc2)C1=O` [A108, N-(3-Chloro-5-fluorobenzyl)-(R)-3-hydroxy-2-oxo-1-(6-trifluoromethylpyridin-3-yl)-pyrrolidine-3-carboxamide], the concentration for half-maximal inhibition (IC50) is more than 10000 nM.

Regarding `CCOC(=O)c1cc2cc(N3CC[C@](O)(C(=O)NCc4cc(F)cc(Cl)c4)C3=O)ccc2[nH]1` [B80, Ethyl 5-[(S)-3-(3-chloro-5-fluorobenzylcarbamoyl)-3-hydroxy-2-oxopyrrolidin-1-yl]-1H-indole-2-carboxylate], the IC50 is 10 to 1000 nM.

In the case of `COCCn1cc(N2CC[C@@](O)(C(=O)NCc3cc(F)cc(Cl)c3)C2=O)cn1` [B100, N-(3-Chloro-5-fluorobenzyl)-(R)-3-hydroxy-1-[1-(2-methoxy-ethyl)-1H-pyrazol-4-yl]-2-oxo-pyrrolidine-3-carboxamide], the concentration for half-maximal inhibition (IC50) was more than 10000 nM.

`O=C1CCc2cc(N3CC[C@](O)(C(=O)NCc4c(F)cc(F)cc4F)C3=O)ccc2N1` [A236, N-(2,4,6-Trifluorobenzyl)-(S)-3-hydroxy-2-oxo-1-(2-oxo-1,2,3,4-tetrahydroquinolin-6-yl)-pyrrolidine-3-carboxamide]: the half-maximal inhibitory concentration (IC50) lay in the range of 10 to 1000 nM.

For the compound `O=C(NCc1cc(F)cc(Cl)c1)[C@]1(O)CCN(c2ccc3[nH]cc(C(F)(F)F)c3c2)C1=O` [B73, N-(3-Chloro-5-fluorobenzyl)-(R)-3-hydroxy-2-oxo-1-(3-trifluoro-methyl-1H-indol-5-yl)pyrrolidine-3-carboxamide], the IC50 was more than 10000 nM.

For the compound `CCN[C@H]1CC[C@H](N2CCC(O)(C(=O)NCc3cc(F)cc(Cl)c3)C2=O)CC1` (stereo partly shown) [A127, N-(3-Chloro-5-fluorobenzyl)-1-(4-ethylaminocyclohexyl)-3-hydroxy-2-oxopyrrolidine-3-carboxamide], the half-inhibitory concentration (IC50) lay within 1000 to 10000 nM.

For `CCOC(=O)C1CCCC(N2CCC(O)(C(=O)NCc3cc(F)cc(Cl)c3)C2=O)C1` (stereo not shown) [A202, Ethyl 3-[3-(3-chloro-5-fluorobenzylcarbamoyl)-3-hydroxy-2-oxopyrrolidin-1-yl]-cyclohexanecarboxylate], the IC50 lay in the range of 1000 to 10000 nM.

Turning to `O=C(NCc1cc(F)cc(Cl)c1)C1(O)CCN([C@H]2[C@@H]3CNC[C@@H]32)C1=O` (stereo partly drawn) [A229, N-(3-Chloro-5-fluorobenzyl)-1-(1S,5R,6S)-3-azabicyclo-[3.1.0]hex-6-yl-3-hydroxy-2-oxo-pyrrolidine-3-carboxamide], the IC50 is more than 10000 nM.

Turning to `CNC(=O)c1cc2cc(N3CC[C@](O)(C(=O)NCc4cc(F)cc(Cl)c4)C3=O)ccc2[nH]1` [B96, N-Methyl-5-[(S)-3-(3-chloro-5-fluorobenzylcarbamoyl)-3-hydroxy-2-oxopyrrolidin-1-yl]-1H-indole-2-carboxamide], the 50% inhibitory concentration (IC50) lay in the range of 10 to 1000 nM.

With `O=C(NCc1cc(F)cc(Cl)c1)[C@]1(O)CCN(CCc2c[nH]c3ccccc23)C1=O` [B38, N-(3-Chloro-5-fluorobenzyl)-(R)-3-hydroxy-1-[2-(1H-indol-3-yl)-ethyl]-2-oxopyrrolidine-3-carboxamide], the IC50 fell in the range of 1000 to 10000 nM.

In the case of `O=C(NCc1cc(F)cc(Cl)c1)C1(O)CCN(c2ccc3[nH]c(=O)ccc3c2)C1=O` (stereo not shown) [A147, N-(3-Chloro-5-fluorobenzyl)-3-hydroxy-2-oxo-1-(2-oxo-1,2-dihydroquinolin-6-yl)pyrrolidine-3-carboxamide], the IC50 lay in the range of 10 to 1000 nM.

In the case of `O=C(NCCO)c1cccc(N2CC[C@@](O)(C(=O)NCc3cc(F)cc(Cl)c3)C2=O)c1` [A91, N-(3-Chloro-5-fluorobenzyl)-(R)-3-hydroxy-1-[3-(2-hydroxy-ethylcarbamoyl)phenyl]-2-oxo-pyrrolidine-3-carboxamide], the concentration for half-maximal inhibition (IC50) was more than 10000 nM.

Regarding `O=C(NCc1cc(F)cc(Cl)c1)[C@@]1(O)CCN(c2cccc(NS(=O)(=O)C3CC3)c2)C1=O` [A80, N-(3-Chloro-5-fluorobenzyl)-(S)-1-(3-cyclopropanesulfonylamino-phenyl)-3-hydroxy-2-oxo-pyrrolidine-3-carboxamide], the IC50 lay within 10 to 1000 nM.

As for `Cc1ccc(CNCC2(O)CCN(c3ccccc3)C2=O)cc1` (stereo not shown) [B49, 3-Hydroxy-3-[(4-methyl-benzylamino)methyl]-1-phenyl-pyrrolidin-2-one], the IC50 is 10 to 1000 nM.

As to `O=C(NCCO)c1cccc(N2CC[C@](O)(C(=O)NCc3cc(F)cc(Cl)c3)C2=O)c1` [A88, N-(3-Chloro-5-fluorobenzyl)-(S)-3-hydroxy-1-[3-(2-hydroxy-ethylcarbamoyl)phenyl]-2-oxo-pyrrolidine-3-carboxamide], the IC50 was 10 to 1000 nM.

On to `NS(=O)(=O)c1ccc(N2CCC(O)(C(=O)NCc3cc(F)cc(Cl)c3)C2=O)cc1` (stereo not shown) [B115, N-(3-Chloro-5-fluorobenzyl)-3-hydroxy-2-oxo-1-(4-sulfamoyl-phenyl)pyrrolidine-3-carboxamide], for which the IC50 is 10 to 1000 nM.

`NS(=O)(=O)c1ccc(N2CC[C@](O)(C(=O)NCc3cc(F)cc(Cl)c3)C2=O)cc1` [B101, N-(3-Chloro-5-fluorobenzyl)-(S)-3-hydroxy-2-oxo-1-(4-sulfamoyl-phenyl)pyrrolidine-3-carboxamide]: the half-inhibitory concentration (IC50) lay within 10 to 1000 nM.

Take `O=C(NCc1cc(F)cc(Cl)c1)[C@@]1(O)CCN(c2ccc3[nH]c(=O)sc3c2)C1=O` [B77, N-(3-Chloro-5-fluorobenzyl)-(S)-3-hydroxy-2-oxo-1-(2-oxo-2,3-dihydrobenzothiazol-6-yl)-pyrrolidine-3-carboxamide]: the IC50 fell in the range of 10 to 1000 nM.

As for `O=C1CCc2cc(N3CCC(O)(C(=O)NCCc4cc(F)cc(Cl)c4)C3=O)ccc2N1` (stereo not shown) [A137, N-[2-(3-Chloro-5-fluorophenyl)-ethyl]-3-hydroxy-2-oxo-1-(2-oxo-1,2,3,4-tetrahydroquinolin-6-yl)-pyrrolidine-3-carboxamide], the concentration for half-maximal inhibition (IC50) was 10 to 1000 nM.

As for `O=C1N(c2ccccc2)CCC1(O)CNCCc1ccc(F)cc1` (stereo not shown) [B47, 3-{[2-(4-Fluorophenyl)-ethylamino]methyl}-3-hydroxy-1-phenylpyrrolidin-2-one], the IC50 lay in the range of 1000 to 10000 nM.

`O=C1CCc2cc(N3CC[C@](O)(C(=O)NCCc4cc(F)cc(F)c4)C3=O)ccc2N1` [A221, N-[2-(3,5-Difluorophenyl)ethyl]-(S)-3-hydroxy-2-oxo-1-(2-oxo-1,2,3,4-tetrahydroquinolin-6-yl)-pyrrolidine-3-carboxamide]: the half-maximal inhibitory concentration (IC50) fell in the range of 10 to 1000 nM.

Turning to `COc1ccc(N2CCC(O)(C(=O)NCc3cc(F)cc(Cl)c3)C2=O)cn1` (stereo not shown) [A138, N-(3-Chloro-5-fluorobenzyl)-3-hydroxy-1-(6-methoxypyridin-3-yl)-2-oxopyrrolidine-3-carboxamide], the 50% inhibitory concentration (IC50) was in the range of 10 to 1000 nM.
